Experimental data as given in patent publication US9694016B2 (Novartis AG, priority 2013, dated 2017).
pIC50: −log10 of the molar value.

The molecules below were run against b-Raf (V600E) (Homo sapiens (Human), UniProt P15056, V600E). Conditions: read-out: b-Raf IC-50; AlphaScreen, 60 min pre-incubation, 3 hours reaction.
Chain of b-Raf (V600E) (P15056 whole entry V600E): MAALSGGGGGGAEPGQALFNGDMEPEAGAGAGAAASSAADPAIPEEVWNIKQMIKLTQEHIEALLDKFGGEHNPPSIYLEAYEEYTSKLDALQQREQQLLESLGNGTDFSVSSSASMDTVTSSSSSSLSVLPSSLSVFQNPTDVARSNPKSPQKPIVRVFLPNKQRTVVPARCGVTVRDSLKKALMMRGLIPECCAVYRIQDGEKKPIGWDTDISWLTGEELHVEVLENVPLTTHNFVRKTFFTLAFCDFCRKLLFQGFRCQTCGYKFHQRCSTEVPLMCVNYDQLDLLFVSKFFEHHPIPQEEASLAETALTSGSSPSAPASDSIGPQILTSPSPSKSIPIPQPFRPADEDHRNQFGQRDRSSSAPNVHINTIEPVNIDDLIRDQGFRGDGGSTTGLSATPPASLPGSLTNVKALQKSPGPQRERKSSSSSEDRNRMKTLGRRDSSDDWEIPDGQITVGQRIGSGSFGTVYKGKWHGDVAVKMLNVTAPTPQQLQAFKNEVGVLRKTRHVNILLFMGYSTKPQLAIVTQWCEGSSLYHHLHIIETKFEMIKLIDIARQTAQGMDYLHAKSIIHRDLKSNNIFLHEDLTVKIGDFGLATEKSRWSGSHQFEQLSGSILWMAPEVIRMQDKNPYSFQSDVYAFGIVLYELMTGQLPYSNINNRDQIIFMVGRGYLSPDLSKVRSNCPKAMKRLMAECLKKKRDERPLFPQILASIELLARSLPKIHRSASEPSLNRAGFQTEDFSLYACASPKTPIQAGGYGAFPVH

| SMILES | pIC50 |
| --- | --- |
| CCNc1nc(-c2cc(NC(=O)c3ccnc(C(C)(C)O)c3)ccc2C)cc(N2CCOCC2)n1 [Example 705, N-(3-(2-(ethylamino)-6-morpholinopyrimidin-4-yl)-4-methylphenyl)-2-(2-hydroxypropan-2-yl)isonicotinamide] | 8.39 |
| CCNc1nc(-c2cc(NC(=O)c3ccnc(C(C)(C)C#N)c3)ccc2C)cc(N2CCOC[C@H]2C)n1 [Example 711, (R)-2-(2-cyanopropan-2-yl)-N-(3-(2-(ethylamino)-6-(3-methylmorpholino)pyrimidin-4-yl)-4-methylphenyl)isonicotinamide] | 8.25 |
| CCNc1nc(-c2cc(NC(=O)c3ccnc(C(C)(C)O)c3)ccc2C)cc(N2CCOC[C@H]2C)n1 [Example 712, (R)—N-(3-(2-(ethylamino)-6-(3-methylmorpholino)pyrimidin-4-yl)-4-methylphenyl)-2-(2-hydroxypropan-2-yl)isonicotinamide] | 7.92 |
| CCNc1nc(-c2cc(NC(=O)c3ccnc(C(C)(C)C#N)c3)cnc2C)cc(N2CCOCC2)n1 [Example 718, 2-(2-cyanopropan-2-yl)-N-(5-(2-(ethylamino)-6-morpholinopyrimidin-4-yl)-6-methylpyridin-3-yl)isonicotinamide] | 8.08 |
| CCNc1nc(-c2cc(NC(=O)c3cc(C(F)(F)F)c(=O)n(CC)c3)cnc2C)cc(N2CCOCC2)n1 [Example 720, 1-ethyl-N-(5-(2-(ethylamino)-6-morpholinopyrimidin-4-yl)-6-methylpyridin-3-yl)-6-oxo-5-(trifluoromethyl)-1,6-dihydropyridine-3-carboxamide] | 7.63 |
| CCNc1nc(-c2cc(NC(=O)c3ccnc(C(C)(C)O)c3)cnc2C)cc(N2CCOCC2)n1 [Example 723, N-(5-(2-(ethylamino)-6-morpholinopyrimidin-4-yl)-6-methylpyridin-3-yl)-2-(2-hydroxypropan-2-yl)isonicotinamide] | 7.46 |
| CCNc1nc(-c2cc(NC(=O)c3ccnc(C(C)(C)C)c3)cnc2C)cc(N2CCOCC2)n1 [Example 724, 2-(tert-butyl)-N-(5-(2-(ethylamino)-6-morpholinopyrimidin-4-yl)-6-methylpyridin-3-yl)isonicotinamide] | 7.69 |
| CCNc1nc(-c2cc(NC(=O)c3cccc(C(C)(C)C#N)c3)cnc2C)cc(N2CCOCC2)n1 [Example 726, 3-(2-cyanopropan-2-yl)-N-(5-(2-(ethylamino)-6-morpholinopyrimidin-4-yl)-6-methylpyridin-3-yl)benzamide] | 8.05 |
| CCNc1nc(-c2cc(NC(=O)c3cnnc(C4CC4)c3)cnc2C)cc(N2CCOCC2)n1 [Example 727, 6-cyclopropyl-N-(5-(2-(ethylamino)-6-morpholinopyrimidin-4-yl)-6-methylpyridin-3-yl)pyridazine-4-carboxamide] | 8.07 |
| CCNc1nc(-c2cc(NC(=O)c3ccnc(C4(C#N)CC4)c3)cnc2C)cc(N2CCOCC2)n1 [Example 728, 2-(1-cyanocyclopropyl)-N-(5-(2-(ethylamino)-6-morpholinopyrimidin-4-yl)-6-methylpyridin-3-yl)isonicotinamide] | 8.36 |
| CCNc1nc(-c2cc(NC(=O)c3ccnc(C4COC4)c3)cnc2C)cc(N2CCOCC2)n1 [Example 729, N-(5-(2-(ethylamino)-6-morpholinopyrimidin-4-yl)-6-methylpyridin-3-yl)-2-(oxetan-3-yl)isonicotinamide] | 7.75 |
| CCNc1nc(-c2cc(NC(=O)c3cnnc(C(C)(C)C#N)c3)cnc2C)cc(N2CCOCC2)n1 [Example 730, 6-(2-cyanopropan-2-yl)-N-(5-(2-(ethylamino)-6-morpholinopyrimidin-4-yl)-6-methylpyridin-3-yl)pyridazine-4-carboxamide] | 7.57 |
| CCNc1nc(-c2cc(C(=O)Nc3ccccc3)ccc2C)cc(N2CCOCC2)n1 [Example 731, 3-(2-(ethylamino)-6-morpholinopyrimidin-4-yl)-4-methyl-N-phenylbenzamide] | 8.36 |
| Cc1ccc(NC(=O)c2ccnc(C(C)(C)C#N)c2)cc1-c1cc(N2CCOCC2)nc(NCCO)n1 [Example 734, 2-(2-cyanopropan-2-yl)-N-(3-(2-((2-hydroxyethyl)amino)-6-morpholinopyrimidin-4-yl)-4-methylphenyl)isonicotinamide] | 8.16 |
| Cc1ncc(NC(=O)c2cccc(C(F)(F)F)c2)cc1-c1cc(N2CCOCC2)nc(NCCO)n1 [Example 735, N-(5-(2-((2-hydroxyethyl)amino)-6-morpholinopyrimidin-4-yl)-6-methylpyridin-3-yl)-3-(trifluoromethyl)benzamide] | 8.37 |
| Cc1ccc(NC(=O)c2cnnc(C(C)(C)C#N)c2)cc1-c1cc(N2CCOCC2)nc(NCCO)n1 [Example 737, 6-(2-cyanopropan-2-yl)-N-(3-(2-((2-hydroxyethyl)amino)-6-morpholinopyrimidin-4-yl)-4-methylphenyl)pyridazine-4-carboxamide] | 7.75 |
| Cc1ncc(NC(=O)c2ccnc(C(C)(C)C#N)c2)cc1-c1cc(N2CCOCC2)nc(NC[C@H](C)O)n1 [Example 738, (S)-2-(2-cyanopropan-2-yl)-N-(5-(2-((2-hydroxypropyl)amino)-6-morpholinopyrimidin-4-yl)-6-methylpyridin-3-yl)isonicotinamide] | 7.48 |

Now those with a higher pIC50, led by results:

| pIC50 | SMILES |
| --- | --- |
| 8.92 | CCNc1nc(-c2cc(NC(=O)c3ccnc(C(C)C)c3)ccc2C)cc(N2CCOCC2)n1 [Example 700, N-(3-(2-(ethylamino)-6-morpholinopyrimidin-4-yl)-4-methylphenyl)-2-isopropylisonicotinamide] |
| 8.89 | CCNc1nc(-c2cc(NC(=O)c3cccc(C(C)(F)F)c3)ccc2C)cc(N2CCOCC2)n1 [Example 701, 3-(1,1-difluoroethyl)-N-(3-(2-(ethylamino)-6-morpholinopyrimidin-4-yl)-4-methylphenyl)benzamide] |
| 8.52 | CCNc1nc(-c2cc(NC(=O)c3ccnc(S(C)(=O)=O)c3)ccc2C)cc(N2CCOCC2)n1 [Example 702, N-(3-(2-(ethylamino)-6-morpholinopyrimidin-4-yl)-4-methylphenyl)-2-(methylsulfonyl)isonicotinamide] |
| 8.89 | CCNc1nc(-c2cc(NC(=O)c3cc(C(F)(F)F)c(=O)n(CC)c3)ccc2C)cc(N2CCOCC2)n1 [Example 703, 1-ethyl-N-(3-(2-(ethylamino)-6-morpholinopyrimidin-4-yl)-4-methylphenyl)-6-oxo-5-(trifluoromethyl)-1,6-dihydropyridine-3-carboxamide] |
| 9.10 | CCNc1nc(-c2cc(NC(=O)c3ccnc(C(F)(F)CC)c3)ccc2C)cc(N2CCOCC2)n1 [Example 706, 2-(1,1-difluoropropyl)-N-(3-(2-(ethylamino)-6-morpholinopyrimidin-4-yl)-4-methylphenyl)isonicotinamide] |
| 8.72 | CCNc1nc(-c2cc(NC(=O)c3ccnc(C4COC4)c3)ccc2C)cc(N2CCOCC2)n1 [Example 707, N-(3-(2-(ethylamino)-6-morpholinopyrimidin-4-yl)-4-methylphenyl)-2-(oxetan-3-yl)isonicotinamide] |
| 9.30 | CCNc1nc(-c2cc(NC(=O)c3ccnc(C4(C#N)CC4)c3)ccc2C)cc(N2CCOCC2)n1 [Example 708, 2-(1-cyanocyclopropyl)-N-(3-(2-(ethylamino)-6-morpholinopyrimidin-4-yl)-4-methylphenyl)isonicotinamide] |
| 8.47 | CCNc1nc(-c2cc(NC(=O)c3cnnc(C(C)(C)C#N)c3)ccc2C)cc(N2CCOCC2)n1 [Example 709, 6-(2-cyanopropan-2-yl)-N-(3-(2-(ethylamino)-6-morpholinopyrimidin-4-yl)-4-methylphenyl)pyridazine-4-carboxamide] |
| 8.60 | CCNc1nc(-c2cc(NC(=O)c3ccnc(C(C)(C)O)c3)ccc2C)cc(N2CCOC[C@@H]2C)n1 [Example 713, (S)—N-(3-(2-(ethylamino)-6-(3-methylmorpholino)pyrimidin-4-yl)-4-methylphenyl)-2-(2-hydroxypropan-2-yl)isonicotinamide] |
| 8.60 | CCNc1nc(-c2cc(NC(=O)c3ccnc(C(C)(C)C#N)c3)ccc2C)cc(N2CCOC[C@@H]2C)n1 [Example 714, (S)-2-(2-cyanopropan-2-yl)-N-(3-(2-(ethylamino)-6-(3-methylmorpholino)pyrimidin-4-yl)-4-methylphenyl)isonicotinamide] |
| 8.89 | CCNc1nc(-c2cc(NC(=O)c3cccc(C(F)(F)F)c3)cnc2C)cc(N2CCOCC2)n1 [Example 716, N-(5-(2-(ethylamino)-6-morpholinopyrimidin-4-yl)-6-methylpyridin-3-yl)-3-(trifluoromethyl)benzamide] |
| 8.54 | CCNc1nc(-c2cc(NC(=O)c3ccnc(C(C)(C)C#N)c3)ccc2C)cc(N2CCOCC2)n1 [Example 717, 2-(2-cyanopropan-2-yl)-N-(3-(2-(ethylamino)-6-morpholinopyrimidin-4-yl)-4-methylphenyl)isonicotinamide] |
| 8.48 | CCNc1nc(-c2cc(NC(=O)c3ccnc(C(F)F)c3)cnc2C)cc(N2CCOCC2)n1 [Example 721, 2-(difluoromethyl)-N-(5-(2-(ethylamino)-6-morpholinopyrimidin-4-yl)-6-methylpyridin-3-yl)isonicotinamide] |
| 8.80 | CCNc1nc(-c2cc(NC(=O)c3cccc(C(F)F)c3)cnc2C)cc(N2CCOCC2)n1 [Example 722, 3-(difluoromethyl)-N-(5-(2-(ethylamino)-6-morpholinopyrimidin-4-yl)-6-methylpyridin-3-yl)benzamide] |
| 8.66 | CCNc1nc(-c2cc(C(=O)Nc3cccc(C(C)(C)C#N)c3)ccc2C)cc(N2CCOCC2)n1 [Example 732, N-(3-(2-cyanopropan-2-yl)phenyl)-3-(2-(ethylamino)-6-morpholinopyrimidin-4-yl)-4-methylbenzamide] |
| 9.10 | CCNc1nc(-c2cc(C(=O)Nc3cccc(C(F)F)c3)ccc2C)cc(N2CCOCC2)n1 [Example 733, N-(3-(difluoromethyl)phenyl)-3-(2-(ethylamino)-6-morpholinopyrimidin-4-yl)-4-methylbenzamide] |
| 8.68 | Cc1ncc(NC(=O)c2cccc(C(F)(F)F)c2)cc1-c1cc(N2CCOCC2)nc(NC[C@H](C)O)n1 [Example 740, (S)—N-(5-(2-((2-hydroxypropyl)amino)-6-morpholinopyrimidin-4-yl)-6-methylpyridin-3-yl)-3-(trifluoromethyl)benzamide] |
